In US8536307B2, “Anticalins” (Pieris AG, priority 1997, dated 2013):

Key:
[1] = target: anticalin FluB, mutein of Pieris brassicae bilin-binding protein (Bbp): Asn34Gln, Ser35His, Val36Trp, Glu37Asp, Asn58Arg, His60Arg, Ile69His, Glu70Lys, Leu88Val (Pieris brassicae, UniProt P09464, E52D/E85K/F142H/H75R/I84H/K102S/K110R/K131R/K150M/L103V/N112G/N16D/N36Q/N49Q/N73R/Q140W/S50H/V108R/V51W/Y105R/Y129R); conditions: fluorescence titration, excitation 280 nm, emission 340 nm, 1 μM anticalin, PBS with 1 mM EDTA, pH 7.4, 25° C.
[2] = target: T1, anticalin FluA, mutein of Pieris brassicae bilin-binding protein (Bbp): Asn34Ser, Ser35Pro, Val36Asn, Glu37Gly, Asn58Arg, His60Asp, Ile69Met, Leu88Arg, Tyr90Val (Pieris brassicae, UniProt P09464, E111K/E52G/F142H/H75D/I84M/K102S/K110R/K131R/K150M/L103R/N112T/N16D/N36Q/N49S/N73R/Q140W/S50P/V108Y/V51N/Y105V/Y129S); conditions: fluorescence titration, excitation 280 nm, emission 340 nm, 1 μM anticalin, PBS with 1 mM EDTA, pH 7.4, 25° C.
[3] = target: T1, anticalin FluA, mutein of Pieris brassicae bilin-binding protein (Bbp): Asn34Ser, Ser35Pro, Val36Asn, Glu37Gly, Asn58Arg, His60Asp, Ile69Met, Leu88Arg, Tyr90Val; conditions: fluorescein 1 μM, excitation 490 nm, emission 512 nm, PBS with 1 mM EDTA, pH 7.4, 25° C.
[4] = target: recombinant Pieris brassicae bilin-binding protein (Bbp), parent (Pieris brassicae, UniProt P09464, K102S/K150M/N16D/N36Q); conditions: control experiment corresponding to that with FluA, excitation 490 nm, emission 512 nm
Sequence of recombinant Pieris brassicae bilin-binding protein (Bbp), parent (P09464 other isoform, or with tags, fused parts or gaps K102S/K150M/N16D/N36Q): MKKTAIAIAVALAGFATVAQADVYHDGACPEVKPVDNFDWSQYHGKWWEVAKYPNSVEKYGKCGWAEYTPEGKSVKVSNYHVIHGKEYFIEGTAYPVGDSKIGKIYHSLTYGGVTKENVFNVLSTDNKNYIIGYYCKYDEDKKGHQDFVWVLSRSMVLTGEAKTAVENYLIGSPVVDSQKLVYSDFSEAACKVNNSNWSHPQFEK

T1 sequence (P09464 other isoform, or with tags, fused parts or gaps with the stated changes): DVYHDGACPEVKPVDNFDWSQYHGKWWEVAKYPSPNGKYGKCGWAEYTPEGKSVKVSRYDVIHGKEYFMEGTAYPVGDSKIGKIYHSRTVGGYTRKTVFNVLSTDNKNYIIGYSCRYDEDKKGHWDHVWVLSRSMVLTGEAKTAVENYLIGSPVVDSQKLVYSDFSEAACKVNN
Sequence of UniProt P09464 (P09464 other isoform, or with tags, fused parts or gaps with the stated changes): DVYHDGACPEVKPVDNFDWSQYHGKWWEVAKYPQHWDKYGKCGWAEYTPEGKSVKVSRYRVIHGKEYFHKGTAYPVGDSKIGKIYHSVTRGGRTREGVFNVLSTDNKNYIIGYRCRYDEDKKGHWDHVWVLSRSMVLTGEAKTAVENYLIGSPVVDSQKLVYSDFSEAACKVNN

Compound | Dissociation constant (Kd) [1] | Dissociation constant (Kd) [2] | Quenching of the fluorescence intensity of fluorescein in the complex [3] | Quenching of the fluorescence of fluorescein [4]
Nc1ccc2c(c1)C(=O)OC21c2ccc(O)cc2Oc2cc(O)ccc21 [4-Aminofluorescein, 4-amino-fluorescein] | 2840 ± 300 nM | 224 ± 6 nM | – | –
O=C(O)CCCC(=O)Nc1ccc2c(c1)C(=O)OC21c2ccc(O)cc2Oc2cc(O)ccc21 [4-Glutarylamidofluorescein, 4-glutarylamido-fluorescein] | 4700 ± 510 nM | 601 ± 16 nM | – | –
O=C1OC2(c3ccc(O)cc3Oc3cc(O)ccc32)c2ccccc21 [Fluorescein, fluorescein] | 5730 ± 860 nM | 118 ± 14 nM | 99.7±0.3% | no comparable fluorescence quenching was found
